Experimental data published in the kinase profiling compilation of Christmann-Franck et al. (2016).

What was measured:
Assay in all cases: KINOMEscan competition binding
Conditions in all cases: compound 10.0 µM
[1] = molecular target: AKT3 (human) (UniProt Q9Y243)
[2] = molecular target: MAP2K6 (human) (UniProt P52564)
[3] = molecular target: ABL2 (human) (UniProt P42684)
[4] = molecular target: ERBB4 (human) (UniProt Q15303)
[5] = molecular target: EPHB4 (human) (UniProt P54760)
[6] = molecular target: AXL (human) (UniProt P30530)
[7] = molecular target: PKMYT1 (human) (UniProt Q99640)
[8] = molecular target: NIM1 (human) (UniProt Q8IY84)
[9] = molecular target: STK24 (human) (UniProt Q9Y6E0)
[10] = molecular target: AKT1 (human) (UniProt P31749)
[11] = system: RET (human), P07949 [V804L]
[12] = molecular target: RIPK4 (human) (UniProt P57078)
[13] = molecular target: DMPK (human) (UniProt Q09013)
[14] = molecular target: STK25 (human) (UniProt O00506)
[15] = molecular target: CAMK2A (human) (UniProt Q9UQM7)
[16] = molecular target: CDC2L2 (human) (UniProt Q9UQ88)
[17] = molecular target: GSK3A (human) (UniProt P49840)
[18] = molecular target: BMPR1B (human) (UniProt O00238)
[19] = molecular target: CSNK1E (human) (UniProt P49674)
[20] = molecular target: STK11 (human) (UniProt Q15831)
[21] = molecular target: RAF1 (human) (UniProt P04049)
[22] = molecular target: SRPK3 (human) (UniProt Q9UPE1)
[23] = molecular target: DYRK1B (human) (UniProt Q9Y463)
[24] = molecular target: SRC (human) (UniProt P12931)
[25] = molecular target: FGFR1 (human) (UniProt P11362)
[26] = molecular target: MELK (human) (UniProt Q14680)
[27] = molecular target: PAK3 (human) (UniProt O75914)
[28] = molecular target: MYLK3 (human) (UniProt Q32MK0)
[29] = molecular target: WEE2 (human) (UniProt P0C1S8)
[30] = molecular target: TNIK (human) (UniProt Q9UKE5)
[31] = molecular target: NEK4 (human) (UniProt P51957)
[32] = molecular target: CLK3 (human) (UniProt P49761)
[33] = molecular target: PAK1 (human) (UniProt Q13153)
[34] = molecular target: CDK14 (human) (UniProt O94921)
[35] = molecular target: DSTYK (human) (UniProt Q6XUX3)
[36] = molecular target: ULK2 (human) (UniProt Q8IYT8)
[37] = molecular target: EPHB1 (human) (UniProt P54762)
[38] = molecular target: PIK3C2G (human) (UniProt O75747)
[39] = molecular target: MAPK1 (human) (UniProt P28482)
[40] = molecular target: ACVR2A (human) (UniProt P27037)
[41] = molecular target: MAP4K5 (human) (UniProt Q9Y4K4)

Sequence of MYLK3 (human) (Q32MK0 whole entry, looked up): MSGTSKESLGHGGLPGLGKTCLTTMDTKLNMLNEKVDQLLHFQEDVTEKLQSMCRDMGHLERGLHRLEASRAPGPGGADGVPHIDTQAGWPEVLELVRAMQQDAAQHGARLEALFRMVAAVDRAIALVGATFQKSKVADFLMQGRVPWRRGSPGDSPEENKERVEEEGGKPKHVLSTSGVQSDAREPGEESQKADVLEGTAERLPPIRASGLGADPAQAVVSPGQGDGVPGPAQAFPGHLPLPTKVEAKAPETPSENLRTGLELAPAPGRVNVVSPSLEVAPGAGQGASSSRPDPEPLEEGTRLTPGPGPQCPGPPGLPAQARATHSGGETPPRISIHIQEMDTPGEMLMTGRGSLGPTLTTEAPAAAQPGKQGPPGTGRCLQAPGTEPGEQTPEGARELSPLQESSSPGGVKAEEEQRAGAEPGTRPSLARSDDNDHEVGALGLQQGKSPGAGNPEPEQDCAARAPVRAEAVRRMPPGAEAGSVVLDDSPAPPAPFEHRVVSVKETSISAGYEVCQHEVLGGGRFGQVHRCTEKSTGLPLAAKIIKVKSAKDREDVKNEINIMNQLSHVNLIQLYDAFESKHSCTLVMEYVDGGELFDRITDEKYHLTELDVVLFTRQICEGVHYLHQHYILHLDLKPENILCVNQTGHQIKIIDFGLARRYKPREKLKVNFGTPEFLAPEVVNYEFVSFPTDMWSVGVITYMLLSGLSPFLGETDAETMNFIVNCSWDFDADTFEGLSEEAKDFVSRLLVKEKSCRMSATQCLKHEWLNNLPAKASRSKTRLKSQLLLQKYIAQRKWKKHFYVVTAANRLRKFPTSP
Sequence of STK11 (human) (Q15831 whole entry, looked up): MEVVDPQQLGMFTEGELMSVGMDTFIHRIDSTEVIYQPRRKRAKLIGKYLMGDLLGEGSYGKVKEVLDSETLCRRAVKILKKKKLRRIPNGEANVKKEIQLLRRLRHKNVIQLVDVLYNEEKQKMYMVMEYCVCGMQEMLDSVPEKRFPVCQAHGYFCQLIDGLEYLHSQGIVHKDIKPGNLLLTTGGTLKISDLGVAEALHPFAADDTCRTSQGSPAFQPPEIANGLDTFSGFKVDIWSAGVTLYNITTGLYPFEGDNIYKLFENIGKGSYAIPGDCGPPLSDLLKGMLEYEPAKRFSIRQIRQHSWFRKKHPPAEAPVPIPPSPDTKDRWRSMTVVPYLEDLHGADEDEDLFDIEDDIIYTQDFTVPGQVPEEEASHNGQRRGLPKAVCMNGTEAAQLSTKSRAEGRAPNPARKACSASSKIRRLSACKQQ
Sequence of PAK1 (human) (Q13153 whole entry, looked up): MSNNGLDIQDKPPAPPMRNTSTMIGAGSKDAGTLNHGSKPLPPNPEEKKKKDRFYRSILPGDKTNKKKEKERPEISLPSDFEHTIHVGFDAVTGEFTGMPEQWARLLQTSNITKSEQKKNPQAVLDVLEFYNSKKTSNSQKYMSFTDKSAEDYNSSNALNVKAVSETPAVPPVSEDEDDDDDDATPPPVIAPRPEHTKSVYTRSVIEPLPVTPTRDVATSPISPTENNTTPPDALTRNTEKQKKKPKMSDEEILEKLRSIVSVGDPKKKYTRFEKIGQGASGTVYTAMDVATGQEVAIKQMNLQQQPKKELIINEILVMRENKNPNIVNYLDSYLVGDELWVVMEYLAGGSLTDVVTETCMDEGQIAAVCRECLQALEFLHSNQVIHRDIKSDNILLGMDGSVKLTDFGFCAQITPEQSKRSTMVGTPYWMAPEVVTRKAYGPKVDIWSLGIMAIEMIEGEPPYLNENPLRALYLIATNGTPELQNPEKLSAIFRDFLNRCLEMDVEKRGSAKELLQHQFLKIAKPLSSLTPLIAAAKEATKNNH
Sequence of RIPK4 (human) (P57078 whole entry, looked up): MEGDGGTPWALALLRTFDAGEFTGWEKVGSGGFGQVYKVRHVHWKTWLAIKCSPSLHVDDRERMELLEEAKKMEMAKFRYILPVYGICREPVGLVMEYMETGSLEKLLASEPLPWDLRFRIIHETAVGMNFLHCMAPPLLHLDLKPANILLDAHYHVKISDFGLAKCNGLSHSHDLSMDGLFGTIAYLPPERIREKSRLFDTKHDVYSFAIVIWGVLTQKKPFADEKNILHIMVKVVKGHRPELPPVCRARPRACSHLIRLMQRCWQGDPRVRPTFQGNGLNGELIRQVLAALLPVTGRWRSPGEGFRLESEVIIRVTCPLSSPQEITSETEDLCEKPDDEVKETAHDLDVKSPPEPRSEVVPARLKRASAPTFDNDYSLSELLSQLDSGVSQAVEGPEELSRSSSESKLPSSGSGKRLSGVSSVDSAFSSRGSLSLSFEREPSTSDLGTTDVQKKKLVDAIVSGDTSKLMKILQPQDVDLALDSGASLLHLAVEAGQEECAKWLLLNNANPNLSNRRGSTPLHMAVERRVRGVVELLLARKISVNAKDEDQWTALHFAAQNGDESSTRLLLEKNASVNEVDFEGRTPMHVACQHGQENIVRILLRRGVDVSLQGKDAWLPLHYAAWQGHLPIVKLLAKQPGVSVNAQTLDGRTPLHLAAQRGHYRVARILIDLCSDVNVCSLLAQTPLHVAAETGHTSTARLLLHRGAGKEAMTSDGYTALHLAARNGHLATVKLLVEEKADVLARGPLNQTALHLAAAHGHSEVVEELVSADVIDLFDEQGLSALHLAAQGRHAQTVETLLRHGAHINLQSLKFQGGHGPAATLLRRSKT
Sequence of MAP2K6 (human) (P52564 whole entry, looked up): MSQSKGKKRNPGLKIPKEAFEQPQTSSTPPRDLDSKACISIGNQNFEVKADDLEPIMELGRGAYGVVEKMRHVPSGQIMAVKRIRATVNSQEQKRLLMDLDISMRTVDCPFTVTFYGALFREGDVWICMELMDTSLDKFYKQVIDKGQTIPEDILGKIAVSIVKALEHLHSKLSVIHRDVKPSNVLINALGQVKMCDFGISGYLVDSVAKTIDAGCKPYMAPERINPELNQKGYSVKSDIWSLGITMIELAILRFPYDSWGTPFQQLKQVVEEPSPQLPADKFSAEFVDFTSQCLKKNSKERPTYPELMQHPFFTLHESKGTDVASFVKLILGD
Sequence of BMPR1B (human) (O00238 whole entry, looked up): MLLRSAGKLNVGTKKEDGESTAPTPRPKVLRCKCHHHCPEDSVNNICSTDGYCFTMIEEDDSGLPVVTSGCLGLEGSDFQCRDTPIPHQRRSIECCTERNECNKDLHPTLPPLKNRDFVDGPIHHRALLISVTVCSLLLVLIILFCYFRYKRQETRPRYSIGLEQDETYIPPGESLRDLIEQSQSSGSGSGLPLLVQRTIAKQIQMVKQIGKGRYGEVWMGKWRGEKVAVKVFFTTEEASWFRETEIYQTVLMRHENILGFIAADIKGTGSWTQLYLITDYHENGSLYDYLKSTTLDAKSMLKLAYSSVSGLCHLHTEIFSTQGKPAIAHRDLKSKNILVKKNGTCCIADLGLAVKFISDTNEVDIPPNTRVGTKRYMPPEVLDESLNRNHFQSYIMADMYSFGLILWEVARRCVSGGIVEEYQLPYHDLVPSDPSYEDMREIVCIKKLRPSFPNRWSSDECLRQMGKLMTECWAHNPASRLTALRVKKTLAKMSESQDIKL
Sequence of MAPK1 (human) (P28482 whole entry, looked up): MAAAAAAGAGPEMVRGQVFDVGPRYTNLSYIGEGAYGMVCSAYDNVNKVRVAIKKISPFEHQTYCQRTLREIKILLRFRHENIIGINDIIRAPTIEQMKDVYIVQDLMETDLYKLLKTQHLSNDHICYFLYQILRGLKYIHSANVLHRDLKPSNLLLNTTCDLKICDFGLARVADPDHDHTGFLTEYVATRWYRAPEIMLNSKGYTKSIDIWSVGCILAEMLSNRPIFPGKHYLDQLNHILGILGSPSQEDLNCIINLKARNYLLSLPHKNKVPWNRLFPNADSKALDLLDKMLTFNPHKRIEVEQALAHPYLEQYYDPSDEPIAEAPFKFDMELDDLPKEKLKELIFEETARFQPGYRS
Sequence of CSNK1E (human) (P49674 whole entry, looked up): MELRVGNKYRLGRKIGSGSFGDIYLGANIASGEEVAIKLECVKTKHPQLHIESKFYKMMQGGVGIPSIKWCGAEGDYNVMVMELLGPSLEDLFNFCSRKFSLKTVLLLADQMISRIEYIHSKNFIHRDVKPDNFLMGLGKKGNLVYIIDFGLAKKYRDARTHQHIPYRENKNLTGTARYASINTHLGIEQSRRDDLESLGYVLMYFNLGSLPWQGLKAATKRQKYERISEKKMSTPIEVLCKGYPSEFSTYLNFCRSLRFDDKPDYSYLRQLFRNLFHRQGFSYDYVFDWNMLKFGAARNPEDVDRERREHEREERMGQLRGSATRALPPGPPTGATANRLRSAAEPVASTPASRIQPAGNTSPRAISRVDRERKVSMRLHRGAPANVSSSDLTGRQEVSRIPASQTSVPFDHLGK
Sequence of CLK3 (human) (P49761 whole entry, looked up): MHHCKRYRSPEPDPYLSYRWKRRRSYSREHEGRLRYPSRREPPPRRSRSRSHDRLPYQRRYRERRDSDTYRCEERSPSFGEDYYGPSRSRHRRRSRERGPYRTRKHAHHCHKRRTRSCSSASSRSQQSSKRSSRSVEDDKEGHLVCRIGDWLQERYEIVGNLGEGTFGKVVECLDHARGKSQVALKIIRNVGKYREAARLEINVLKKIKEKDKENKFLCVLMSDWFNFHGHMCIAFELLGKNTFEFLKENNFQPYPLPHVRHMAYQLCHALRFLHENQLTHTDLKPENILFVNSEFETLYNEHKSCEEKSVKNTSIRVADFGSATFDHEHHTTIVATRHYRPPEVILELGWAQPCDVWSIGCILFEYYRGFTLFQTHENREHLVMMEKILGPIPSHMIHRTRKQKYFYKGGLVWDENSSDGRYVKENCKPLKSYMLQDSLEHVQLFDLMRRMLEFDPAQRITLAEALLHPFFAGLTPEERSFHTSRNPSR

Compound: O=c1[nH]c2ccccc2n1C1CCN(Cc2ccc(-c3nc4cc5[nH]cnc5cc4nc3-c3ccccc3)cc2)CC1
- kinase still bound, per cent of control [1]: 100%
- kinase still bound, per cent of control [2]: 100%
- kinase still bound, per cent of control [3]: 100%
- kinase still bound, per cent of control [4]: 66%
- kinase still bound, per cent of control [5]: 100%
- kinase still bound, per cent of control [6]: 45%
- kinase still bound, per cent of control [7]: 94%
- kinase still bound, per cent of control [8]: 71%
- kinase still bound, per cent of control [9]: 100%
- kinase still bound, per cent of control [10]: 77%
- kinase still bound, per cent of control [11]: 85%
- kinase still bound, per cent of control [12]: 87%
- kinase still bound, per cent of control [13]: 98%
- kinase still bound, per cent of control [14]: 97%
- kinase still bound, per cent of control [15]: 98%
- kinase still bound, per cent of control [16]: 100%
- kinase still bound, per cent of control [17]: 100%
- kinase still bound, per cent of control [18]: 88%
- kinase still bound, per cent of control [19]: 15%
- kinase still bound, per cent of control [20]: 94%
- kinase still bound, per cent of control [21]: 99%
- kinase still bound, per cent of control [22]: 87%
- kinase still bound, per cent of control [23]: 88%
- kinase still bound, per cent of control [24]: 81%
- kinase still bound, per cent of control [25]: 73%
- kinase still bound, per cent of control [26]: 77%
- kinase still bound, per cent of control [27]: 72%
- kinase still bound, per cent of control [28]: 100%
- kinase still bound, per cent of control [29]: 96%
- kinase still bound, per cent of control [30]: 97%
- kinase still bound, per cent of control [31]: 93%
- kinase still bound, per cent of control [32]: 100%
- kinase still bound, per cent of control [33]: 90%
- kinase still bound, per cent of control [34]: 100%
- kinase still bound, per cent of control [35]: 76%
- kinase still bound, per cent of control [36]: 88%
- kinase still bound, per cent of control [37]: 100%
- kinase still bound, per cent of control [38]: 75%
- kinase still bound, per cent of control [39]: 100%
- kinase still bound, per cent of control [40]: 88%
- kinase still bound, per cent of control [41]: 64%

Compound: CCN(CCO)CCCOc1ccc2c(Nc3cc(CC(=O)Nc4cccc(F)c4)[nH]n3)ncnc2c1
- kinase still bound, per cent of control [1]: 88%
- kinase still bound, per cent of control [2]: 99%
- kinase still bound, per cent of control [4]: 4%
- kinase still bound, per cent of control [5]: 100%
- kinase still bound, per cent of control [6]: 1.4%
- kinase still bound, per cent of control [7]: 84%
- kinase still bound, per cent of control [8]: 97%
- kinase still bound, per cent of control [9]: 43%
- kinase still bound, per cent of control [10]: 96%
- kinase still bound, per cent of control [11]: 2%
- kinase still bound, per cent of control [12]: 41%
- kinase still bound, per cent of control [13]: 93%
- kinase still bound, per cent of control [14]: 66%
- kinase still bound, per cent of control [15]: 78%
- kinase still bound, per cent of control [16]: 5%
- kinase still bound, per cent of control [17]: 100%
- kinase still bound, per cent of control [18]: 77%
- kinase still bound, per cent of control [19]: 100%
- kinase still bound, per cent of control [20]: 80%
- kinase still bound, per cent of control [21]: 100%
- kinase still bound, per cent of control [22]: 100%
- kinase still bound, per cent of control [23]: 86%
- kinase still bound, per cent of control [24]: 43%
- kinase still bound, per cent of control [25]: 85%
- kinase still bound, per cent of control [26]: 47%
- kinase still bound, per cent of control [27]: 57%
- kinase still bound, per cent of control [28]: 98%
- kinase still bound, per cent of control [29]: 100%
- kinase still bound, per cent of control [30]: 52%
- kinase still bound, per cent of control [31]: 40%
- kinase still bound, per cent of control [32]: 100%
- kinase still bound, per cent of control [33]: 100%
- kinase still bound, per cent of control [34]: 100%
- kinase still bound, per cent of control [35]: 14%
- kinase still bound, per cent of control [36]: 100%
- kinase still bound, per cent of control [37]: 98%
- kinase still bound, per cent of control [38]: 21%
- kinase still bound, per cent of control [39]: 100%
- kinase still bound, per cent of control [40]: 100%
- kinase still bound, per cent of control [41]: 0.95%
